{"source": "patent US4576942A", "about": "“Anti-allergic and anti-inflammatory bi- and tri- cyclo-1,4-thiazine derivatives, composition, and method of use therefor” (USV Pharmaceutical Corp., priority 1984, dated 1986)", "key": {"[1]": {"system": "leukotriene C4-induced contraction of guinea pig peripheral strips", "test": "SRS-A (slow-reacting substance of anaphylaxis) antagonists, leukotriene C4-induced contraction of guinea pig peripheral lung strips", "format": "cell-based", "design": "key to SRS-A degree of inhibitory activity: I: inactive; L: low activity; M: moderate activity; H: high activity", "conditions": "for IC50: Cavia porcellus, 0.2 nM leukotriene C4, 37° C., read-out: SRS-A I50 (concentration required for 50% inhibition of 0.2 nM leukotriene C4-induced contraction); for SRS-A degree of inhibitory activity: 0.2 nM leukotriene C4, class symbol in the SRS-A I50 column", "procedure": "Leukotrienes, the products of the 5-lipoxygenase pathway of arachidonic acid metabolism, are potent contractile agents with a variety of smooth muscle preparations. […] The following protocol describes an in vitro assay used to test compounds which specifically antagonize the actions of leukotrienes.\nPeripheral strips of guinea pig lungs are prepared and hung in tissue baths (Metro # ME-5505, 10 ml) according to the published procedure (Proc. Nat'l Acad. Sci, U.S.A. Volume 77, pp. 4354-4358, 1980). The strips are thoroughly rinsed in Assay Buffer and then connected with surgical silk thread to the support rods from the tissue baths. The rods are adjusted in the baths and the strips connected to the pressure transducers (Grass FT 103 or Gould UC-3). The tissue baths are aerated with 95% oxygen-5% carbon dioxide and maintained at 37° C. The Assay Buffer has been made as follows: For each liter of buffer the following are added to approximately 800 ml of water distilled in glass--6.87 g. NaCl, 0.4 g. KCl, 2.1 g. NaHCO3, 0.14 g, NaH2 PO4.H2 O, 0.21 g. MgSO4.7H2 O, and 2.0 g. D-glucose. Then a solution of 0.368 g. CaCl2.2H2 O in 100 ml glass-distilled water is slowly added to the buffer. Sufficient water is added to adjust the volume to one liter, and the solution is aerated with 95% oxygen-5% carbon dioxide. Usually 10 liters of buffer are used for an experiment with 4 tissues.\nAfter the tissues have been repeatedly washed and allowed to equilibrate in the tissue bath, they are challenged with 1 uM histamine. After maximum contractions have been obtained, the tissues are washed, and allowed to relax back to baseline tension. This histamine challenge procedure is repeated at least 1 to 2 more times to obtain a repeatable control response. The average response to 1 uM histamine for each tissue is used to normalize all other challenges.\nResponses of each tissue to a pre-determined concentration of leukotriene are then obtained. Usually test compounds are examined initially at 30 uM on resting tension of the tissues without any added agonist or antagonist to determine if the compound has any possible intrinsic activity. The tissues are washed, and the test compound is added again. Leukotriene is added after the desired pre-incubation time. The intrinsic activity of the compounds, and their effect on leukotriene-induced contractions are then recorded.\nThe concentration required for 50% inhibition of 0.2 nM leukotriene C4 -induced contraction of guinea pig peripheral strips or degree of inhibitory activity for representative compounds of the present invention is shown in Table I denoted by SRS-A."}, "[2]": {"system": "5-lipoxygenase pathway", "test": "Inhibitors of the Lipoxygenase Pathway (LOX), [14C]-5-HETE formation in rat neutrophils", "format": "cell-based", "design": "key to LOX degree of activity: I: inactive; L: low activity; M: moderate activity; H: high activity", "conditions": "for IC50: Neutrophil; for LOX degree of activity: class symbol in the LOX I50 column", "procedure": "The following protocol describes an assay to detect inhibitors of the lipoxygenase pathway. Such inhibitors are believed to be capable of modulating the biosynthesis of the leukotrienes, a property believed to be useful in treating asthma and inflammatory disease states.\nA suspension of rat neutrophils in buffer is incubated for 3 minutes at 30° C. with [^14 C]-arachidonic acid (AA) and Calcium Ionophore A23187. Citric Acid (2M) is used to quench the reaction. Following the addition of a trace amount of (^3 H)-5-HETE together with an excess of unlabeled 5-HETE to each tube, the mixture is extracted with chloroform/methanol. The organic layer is washed with dilute acid and an aliquot is transferred to glass tubes and dried. The residue is dissolved in a small volume of chloroform and an aliquot is spotted on silica gel TLC sheets, which are developed with an ethyl acetate/isoctane/water/acetic acid solvent system. The 5-HETE spots are visualized with iodine, cut out and placed in scintillation vials for counting. After adjusting for the extraction efficiency, the amount (pmole) of [^14 C]-5-HETE in each of the tubes is quantitated. The net pmoles of 5-HETE are obtained by substracting the pmoles of 5-HETE in the tubes containing buffer alone (blank) for the pmoles of 5-HETE in the tubes containing […]. The ability of the test compounds to modulate the activity of this enzyme is determined by a decrease or increase in the net amount of 5-HETE produced."}, "[3]": {"system": "Human PMN (5-lipoxygenase pathway)", "test": "LOX, Human PMN", "format": "cell-based", "design": "key to LOX degree of activity, Human PMN: I: inactive; L: low activity; M: moderate activity; H: high activity"}, "[4]": {"system": "SRS-A (slow reacting substances of anaphylaxis), anaphylactic bronchoconstriction in guinea pigs", "test": "in vivo modulators of SRS-A: Bronchial Anaphylaxis in Guinea Pigs with Enhanced Leukotrines (BAGEL)", "design": "species or system guinea pig; key: I: inactive; L: low activity; M: moderate activity; H: high activity", "conditions": "15 min before ovalbumin challenge", "procedure": "Representative compounds of the present invention were also tested in the following in vivo model.\nThis test, known as the Bronchial Anaphylaxis in Guinea Pigs with Enhanced Leukotrines (BAGEL), is based on the procedure published in Agents and Actions, Vol. 11, pp. 396-401, 1981, and is performed with guinea pigs actively immunized (14 days) with ovalbumin (2.7 mg/kg, i.p.) and B.pertussis (5×10^9 organisms) as an adjuvant. Prior to challenge with antigen (ovalbumin), the animals are anesthetized and prepared for monitoring pulmonary dynamics by whole body plethysmography. They are treated with an H1 antihistamine (methapyrilene, 2 mg/kg, i.v.) and cyclooxygenase inhibitor (indomethacin; 20 mg/kg, i.p.) in order to enhance the SRS-A component of anaphylactic bronchoconstriction. Bronchoconstriction is quantified as the maximum increase in airway resistance following antigen challenge. The drug is administered either i.p. 10 minutes before challenge, or i.d. 15 minutes before challenge."}, "[5]": {"conditions": "arachidonic acid + Ca ionophore A23187, 30° C., read-out: LOX I50 (concentration required for 50% inhibition of the 5-lipoxygenase pathway)"}}, "note": "Where two headings read alike, the source gives them in different places."}
{"smiles": "O=C(C=C1CSc2ccccc2N1)Nc1ccccc1", "values": [{"measurement": "IC50", "setting": "[1]", "result": 18000, "unit": "nM"}, {"measurement": "IC50", "setting": "[2]; [5]", "result": 1600, "unit": "nM"}]}
{"smiles": "O=C(C=C1CSc2ccccc2N1)Nc1ccccc1Cl", "values": [{"measurement": "LOX degree of activity", "setting": "[2]", "result": "M"}]}
{"smiles": "N#CC(C(N)=O)=C1CSc2ccccc2N1", "values": [{"measurement": "IC50", "setting": "[1]", "result": 25000, "unit": "nM"}, {"measurement": "LOX degree of activity", "setting": "[2]", "result": "I"}]}
{"smiles": "CCOC(=O)C=C(C(=O)OCC)C(C(=O)OCC)=C1CSc2ccccc2N1", "values": [{"measurement": "SRS-A degree of inhibitory activity", "setting": "[1]", "result": "I"}, {"measurement": "LOX degree of activity, Human PMN", "setting": "[3]; Human PMN, 135 μM", "result": "L"}, {"measurement": "BAGEL activity", "setting": "[4]; 30 mg/kg i.d.", "result": "H"}, {"measurement": "IC50", "setting": "[2]; cell prints 3μ .M, read-out: LOX I50, unit printed in the cell", "result": 3000, "unit": "nM"}]}
{"smiles": "CCOC(=O)c1c2csc3ccccc3n-2c(=O)c1O", "values": [{"measurement": "SRS-A degree of inhibitory activity", "setting": "[1]", "result": "I"}, {"measurement": "IC50", "setting": "[2]; [5]", "result": 12000, "unit": "nM"}]}
{"smiles": "CCOC(=O)C(Cl)=C1CSc2ncccc2N1", "values": [{"measurement": "IC50", "setting": "[1]", "result": 20000, "unit": "nM"}, {"measurement": "IC50", "setting": "[3]; Homo sapiens, read-out: LOX I50, Human PMN", "result": 1000, "unit": "nM"}, {"measurement": "BAGEL activity", "setting": "[4]; 200 mg/kg i.d.", "result": "M-H"}, {"measurement": "IC50", "setting": "[2]; [5]", "result": 1200, "unit": "nM"}]}
{"smiles": "CCOC(=O)C(Cl)=C1CSc2ccccc2N1", "values": [{"measurement": "SRS-A degree of inhibitory activity", "setting": "[1]", "result": "M"}, {"measurement": "BAGEL activity", "setting": "[4]; 200 mg/kg i.d.", "result": "L"}, {"measurement": "IC50", "setting": "[2]; [5]", "result": 1700, "unit": "nM"}]}
{"smiles": "CCOC(=O)C=C1CSc2ccccc2N1", "values": [{"measurement": "SRS-A degree of inhibitory activity", "setting": "[1]", "result": "M"}, {"measurement": "LOX degree of activity", "setting": "[2]", "result": "I"}]}
